From patent publication US6372748B1, “Fungicide mixtures based on pyridine amides and fenarimol” (BASF Aktiengesellschaft, priority 1997, dated 2002)

Tested on: Puccinia recondita
Assay: Curative activity against Puccinia recondita on wheat (wheat leaf rust)
Format: in vivo, Puccinia recondita on wheat seedlings of the variety Kanzler
Details: sprayed 1 day after inoculation, rated after 7 days
Experimental: The active ingredients, separately or together, are formulated as a 10% emulsion in a mixture of 63% by weight of cyclohexanone and 27% by weight of emulsifier, and diluted with water to the desired concentration.
Evaluation is carried out by determining the infected leaf areas in percent. These percentages are converted into efficacies. The efficacy (w) is calculated as follows using Abbot's formula: […]
α corresponds to the fungal infection of the treated plants in % and β corresponds to the fungal infection of the untreated (control) plants in % An efficacy of 0 means that the infection level of the treated plants corresponds to that of the untreated control plants; an efficacy of 100 means that the treated plants were not infected.
The expected efficacies of the mixtures of the active ingredients were determined using Colby's formula [R. S. Colby, Weeds 15, 20-22 (1967)] and compared with the observed efficacies.
Colby's formula: E=x+y−x·y/100
E expected efficacy, expressed in % of the untreated control, when using the mixture of the active ingredients A and B at the concentrations a and b x efficacy, expressed in % of the untreated control, when using active ingredient A at a concentration of a y efficacy, expressed in % of the untreated control, when using active ingredient B at a concentration of b Leaves of potted wheat seedlings of the variety “Kanzler” were dusted with spores of leaf rust (Puccinia recondite). Thereafter, the pots were kept for 24 hours in a chamber of high atmospheric humidity (90 to 95%) and 20 to 22° C. During this time, the spores germinated and the germinal tubes penetrated into the leaf tissue. The next day, the infected plants were sprayed to runoff point with an aqeuous formulation of active ingredient prepared from a stock solution consisting of 10% of active ingredient, 63% of cyclohexanone and 27% of emulsifier. After the spray coating had dried on, the test plants were cultivated in a greenhouse at from 20 to 22° C. and from 65 to 70% of relative atmospheric humidity for 7 days. Thereafter, the extent of rust fungus development on the leaves was determined.

[1] = 50 ppm active ingredient in the spray liquor
[2] = 100 ppm active ingredient in the spray liquor

SMILES	Efficacy in % of the untreated control (10 ppm active ingredient in the spray liquor) [%]	Efficacy in % of the untreated control (20 ppm active ingredient in the spray liquor) [%]	Efficacy in % of the untreated control [1] [%]	Efficacy in % of the untreated control [2] [%]	Efficacy in % of the untreated control (200 ppm active ingredient in the spray liquor) [%]
OC(c1ccc(Cl)cc1)(c1cncnc1)c1ccccc1Cl (racemic) [Compound II, (±)-(2-Chlorophenyl)(4-chlorophenyl)(pyrimidin-5-yl)methanol, reference compound]	10	20			
O=C(Nc1ccccc1-c1ccc(F)cc1)c1cccnc1Cl [Compound I.1]			0	0	0
O=C(Nc1ccccc1-c1ccc(Cl)cc1)c1cccnc1Cl [Compound I.2]			0	30	
